Experimental data taken from ChEMBL document CHEMBL1201862, “PubChem BioAssay data set” (2004).
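96-well plates; 48 h exposure; 5 concentrations. Endpoints by linear interpolation between flanking doses. Not reached: highest tested concentration assigned. GI50 marks 50% less growth.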 The source made the active and inactive calls. Cut-off read from the data, not from the text of the source: active = GI50 up to about 1.1 µM and inactive = higher.

Columns and labels:
Experiment in all cases: NCI anticancer screen, dose series, 48 h
DLD-1 = tested on: DLD-1
SF-539 = tested on: SF-539
SF-295 = tested on: SF-295
NCI-H23 = tested on: NCI-H23
SN12C = tested on: SN12C
DMS-273 = tested on: DMS-273
LXFL 529 = tested on: LXFL 529
OVCAR-8 = tested on: OVCAR-8
HOP-62 = tested on: HOP-62
M19-MEL = tested on: M19-MEL
COLO 205 = tested on: COLO 205
HOP-92 = tested on: HOP-92
SF-268 = tested on: SF-268
IGROV-1 = tested on: IGROV-1
HL-60 = tested on: HL-60
SW-620 = tested on: SW-620
SR = tested on: SR
KM12 = tested on: KM12
ACHN = tested on: ACHN
SK-MEL-28 = tested on: SK-MEL-28
A498 = tested on: A498
SNB-19 = tested on: SNB-19
CCRF-CEM = tested on: CCRF-CEM
SK-OV-3 = tested on: SK-OV-3
LOX IMVI = tested on: LOX IMVI
786-0 = tested on: 786-0
HCT-15 = tested on: HCT-15
HT-29 = tested on: HT-29
OVCAR-4 = tested on: OVCAR-4
EKVX = tested on: EKVX
XF498 = tested on: XF498
MOLT-4 = tested on: MOLT-4
DMS-114 = tested on: DMS-114
SNB-75 = tested on: SNB-75
RPMI-8226 = tested on: RPMI-8226
A549 = tested on: A549
UACC-257 = tested on: UACC-257
K562 = tested on: K562
NCI-H522 = tested on: NCI-H522
UO-31 = tested on: UO-31
TK-10 = tested on: TK-10
CAKI-1 = tested on: CAKI-1
U-251 = tested on: U-251
M14 = tested on: M14
NCI-H460 = tested on: NCI-H460
HCC 2998 = tested on: HCC 2998
UACC-62 = tested on: UACC-62
SK-MEL-2 = tested on: SK-MEL-2
KM-20L2 = tested on: KM-20L2
OVCAR-5 = tested on: OVCAR-5
SK-MEL-5 = tested on: SK-MEL-5
RXF 393 = tested on: RXF 393
HCT-116 = tested on: HCT-116
Malme-3M = tested on: Malme-3M
OVCAR-3 = tested on: OVCAR-3
SNB-78 = tested on: SNB-78
NCI-H226 = tested on: NCI-H226
HOP-18 = tested on: HOP-18

With `COP1(=O)Oc2ccccc2C(=O)C(C(F)(F)F)(C(F)(F)F)O1` (stereo not drawn) the GI50 (DLD-1) was > 100 µM (inactive), the GI50 (SF-539) was > 100 µM (inactive) and the GI50 (SF-295) was > 100 µM (inactive). For the same molecule, the GI50 (NCI-H23) was > 100 µM (inactive), the GI50 (SN12C) was > 100 µM (inactive) and the GI50 (DMS-273) was > 100 µM (inactive). For the same molecule, the GI50 (LXFL 529) was > 100 µM (inactive), the GI50 (OVCAR-8) was > 100 µM (inactive) and the GI50 (HOP-62) was > 100 µM (inactive). The GI50 (M19-MEL) was > 100 µM (inactive), the GI50 (COLO 205) was > 100 µM (inactive) and the GI50 (HOP-92) was 56.8 µM (inactive). The GI50 (SF-268) was > 100 µM (inactive), the GI50 (IGROV-1) was > 100 µM (inactive) and the GI50 (HL-60) was > 100 µM (inactive). For the same molecule, the GI50 (SW-620) was > 100 µM (inactive), the GI50 (SR) was > 100 µM (inactive) and the GI50 (KM12) was > 100 µM (inactive). For the same molecule, the GI50 (ACHN) was > 100 µM (inactive), the GI50 (SK-MEL-28) was > 100 µM (inactive) and the GI50 (A498) was > 100 µM (inactive). For the same molecule, the GI50 (SNB-19) was > 100 µM (inactive), the GI50 (CCRF-CEM) was > 100 µM (inactive) and the GI50 (SK-OV-3) was > 100 µM (inactive). The GI50 (LOX IMVI) was > 100 µM (inactive), the GI50 (786-0) was > 100 µM (inactive) and the GI50 (HCT-15) was over 100 µM. For the same molecule, the GI50 (HT-29) was > 100 µM (inactive), the GI50 (OVCAR-4) was > 100 µM (inactive) and the GI50 (EKVX) was > 100 µM (inactive). The GI50 (XF498) was 85.9 µM (inactive), the GI50 (MOLT-4) was > 100 µM (inactive) and the GI50 (DMS-114) was > 100 µM (inactive). For the same molecule, the GI50 (SNB-75) was > 100 µM (inactive), the GI50 (RPMI-8226) was 42.9 µM (inactive) and the GI50 (A549) was > 100 µM (inactive). The GI50 (UACC-257) was > 100 µM (inactive), the GI50 (K562) was > 100 µM (inactive) and the GI50 (NCI-H522) was > 100 µM (inactive). The GI50 (UO-31) was > 100 µM (inactive), the GI50 (TK-10) was > 100 µM (inactive) and the GI50 (CAKI-1) was 50.6 µM (inactive). For the same molecule, the GI50 (U-251) was > 100 µM (inactive), the GI50 (M14) was > 100 µM (inactive) and the GI50 (NCI-H460) was > 100 µM (inactive). The GI50 (HCC 2998) was 0.577 µM (active), the GI50 (UACC-62) was > 100 µM (inactive) and the GI50 (SK-MEL-2) was > 100 µM (inactive). The GI50 (KM-20L2) was > 100 µM (inactive), the GI50 (OVCAR-5) was > 100 µM (inactive) and the GI50 (SK-MEL-5) was > 100 µM (inactive). The GI50 (RXF 393) was > 100 µM (inactive) and the GI50 (HCT-116) was > 100 µM (inactive).

With `OC12c3ccccc3C3CCC4(OCCO4)C3C1c1ccccc12` (stereo not drawn) the GI50 (DLD-1) was > 100 µM (inactive), the GI50 (SF-539) was > 100 µM (inactive) and the GI50 (SF-295) was > 100 µM (inactive). The GI50 (NCI-H23) was > 100 µM (inactive), the GI50 (SN12C) was > 100 µM (inactive) and the GI50 (DMS-273) was > 100 µM (inactive). The GI50 (LXFL 529) was > 100 µM (inactive), the GI50 (OVCAR-8) was > 100 µM (inactive) and the GI50 (HOP-62) was > 100 µM (inactive). The GI50 (M19-MEL) was > 100 µM (inactive), the GI50 (COLO 205) was > 100 µM (inactive) and the GI50 (SF-268) was > 100 µM (inactive). The GI50 (IGROV-1) was 61.8 µM (inactive), the GI50 (HL-60) was > 100 µM (inactive) and the GI50 (SW-620) was > 100 µM (inactive). For the same molecule, the GI50 (KM12) was > 100 µM (inactive), the GI50 (ACHN) was > 100 µM (inactive) and the GI50 (Malme-3M) was > 100 µM (inactive). For the same molecule, the GI50 (SK-MEL-28) was > 100 µM (inactive), the GI50 (A498) was 52.1 µM (inactive) and the GI50 (SNB-19) was > 100 µM (inactive). For the same molecule, the GI50 (CCRF-CEM) was > 100 µM (inactive), the GI50 (SK-OV-3) was > 100 µM (inactive) and the GI50 (LOX IMVI) was > 100 µM (inactive). For the same molecule, the GI50 (786-0) was > 100 µM (inactive), the GI50 (OVCAR-3) was > 100 µM (inactive) and the GI50 (HCT-15) was over 100 µM. The GI50 (HT-29) was 94.2 µM (inactive), the GI50 (SNB-78) was > 100 µM (inactive) and the GI50 (OVCAR-4) was > 100 µM (inactive). The GI50 (EKVX) was > 100 µM (inactive), the GI50 (MOLT-4) was 48.6 µM (inactive) and the GI50 (DMS-114) was 53.6 µM (inactive). For the same molecule, the GI50 (SNB-75) was 39.6 µM (inactive), the GI50 (RPMI-8226) was 64 µM (inactive) and the GI50 (A549) was > 100 µM (inactive). The GI50 (UACC-257) was 71.9 µM (inactive), the GI50 (K562) was 49.8 µM (inactive) and the GI50 (NCI-H522) was 65 µM (inactive). For the same molecule, the GI50 (UO-31) was > 100 µM (inactive), the GI50 (NCI-H226) was > 100 µM (inactive) and the GI50 (TK-10) was 83.2 µM (inactive). The GI50 (HOP-18) was > 100 µM (inactive), the GI50 (CAKI-1) was > 100 µM (inactive) and the GI50 (U-251) was > 100 µM (inactive). The GI50 (M14) was > 100 µM (inactive), the GI50 (NCI-H460) was > 100 µM (inactive) and the GI50 (HCC 2998) was > 100 µM (inactive). For the same molecule, the GI50 (UACC-62) was > 100 µM (inactive), the GI50 (SK-MEL-2) was > 100 µM (inactive) and the GI50 (KM-20L2) was > 100 µM (inactive). For the same molecule, the GI50 (OVCAR-5) was > 100 µM (inactive), the GI50 (SK-MEL-5) was > 100 µM (inactive) and the GI50 (RXF 393) was 39.9 µM (inactive). The GI50 (HCT-116) was > 100 µM (inactive).
